From patent publication US20240408093A1, “HETEROBIFUNCTIONAL COMPOUNDS AND THEIR USE IN TREATING DISEASE” (HALDA THERAPEUTICS OPCO, INC., priority 2022, published 2024)

Experiments:
HeLa cells (ATCC CCL-2) = experiment: Cellular growth inhibition assay, HeLa cells (Example 16); type: cell-based; details: Homo sapiens, 72 hours, CellTiter-Glo 2.0
[1] = test system: HEK293 cells (ATCC CRL-1573); experiment: Cellular growth inhibition assay, HEK293 cells (Example 16); type: cell-based; details: Homo sapiens, 72 hours, CellTiter-Glo 2.0
GSPT1 = target: T1, GSPT1 (Homo sapiens, UniProt P15170+Q96SW2); experiment: GSPT1 HiBiT degradation assay; type: cell-based; details: HEK293 LgBiT GSPT1 HiBiT cells, 6 hours
T1 construct: host or cells: HEK293 LgBiT / GSPT1 HiBiT CRISPR knock-in
Summary of the method: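 HEK293 CRISPR knock-in cells expressing LgBiT and GSPT1-HiBiT were seeded at 1000 cells/well and, after 18-24 h, treated with titrated compound plus endurazine (0.5× final) at 37 °C. Luminescence read after 6 h; loss of signal reflects GSPT1 degradation, giving DC50.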

[2] = target: T2, full-length BTK (amino acids 1-659) (Homo sapiens, UniProt Q06187); experiment: KdELECT binding assay, BTK
T2 construct: full-length BTK (amino acids 1-659); host or cells: mammalian cells (HEK-293)
Procedure: Exemplary compounds were tested for ability to bind to full-length BTK (amino acids 1-659; Accession Number NP_000052.1) expressed from mammalian cells. Compounds were tested using the KdELECT assay.
(§1) Kinase-tagged T7 phage strains were prepared in an E. coli host derived from the BL21 strain. E. coli were grown to log-phase and infected with T7 phage and incubated with shaking at 32° C. until lysis. The lysates were centrifuged and filtered to remove cell debris. The remaining kinases were produced in HEK-293 cells and subsequently tagged with DNA for qPCR detection. Streptavidin-coated magnetic beads were treated with biotinylated small molecule ligands for 30 minutes at room temperature to generate affinity resins for kinase assays. The liganded beads were blocked with excess biotin and washed with blocking buffer (SeaBlock (Pierce), 1% BSA, 0.05% Tween 20, 1 mM DTT) to remove unbound ligand and to reduce non-specific binding. Binding reactions were assembled by combining kinases, liganded affinity beads, and test compounds in 1× binding buffer (20% SeaBlock, 0.17× PBS, 0.05% Tween 20, 6 mM DTT). Test compounds were prepared as 111× stocks in 100% DMSO. Kd values were determined using an 11-point 3-fold compound dilution series with three DMSO control points. All compounds for Kd measurements are distributed by acoustic transfer (non-contact dispensing) in 100% DMSO. The compounds were then diluted directly into the assays such that the final concentration of DMSO was 0.9%. All reactions performed in polypropylene 384-well plate. Each was a final volume of 0.02 mL. The assay plates were incubated at room temperature with shaking for 1 hour and the affinity beads were washed with wash buffer (1× PBS, 0.05% Tween 20). The beads were then re-suspended in elution buffer (1× PBS, 0.05% Tween 20, 0.5 μM nonbiotinylated affinity ligand) and incubated at room temperature with shaking for 30 minutes. The kinase concentration in the eluates was measured by qPCR.

EGFR T790M L858R = target: T3, EGFR T790M L858R (Homo sapiens, UniProt P00533, L858R/T790M); experiment: Release of effector protein ligand from heterobifunctional compounds, EGFR T790M L858R; type: biochemical; details: detected A1-3
T3 construct: EGFR T790M L858R (amino acids 696-1022)
Procedure: Exemplary heterobifunctional compounds were evaluated for the ability to release an effector protein ligand in the presence of KRAS G12C, BTK, or EGFR T790M L858R target proteins.
Samples for mass spectrometry for KRAS G12C, BTK, and EGFR T790M L858R were prepared as described above for the intact mass spectrometry target engagement experiment, respectively, except rather than flash-freezing, 20 μL of sample was quenched with 50 μL of 100% acetonitrile. As well, a buffer-only control was used to detect latent release of effector protein ligand analyte. Internal standard (IS) solution consisted of 200 ng/mL propranolol and 50 ng/mL diclofenac in methanol:water 1:1 (v/v). A 4-point calibration curve (calibration standard (CS)) consisting of each analyte was made at final concentrations of 3 nM, 30 nM, 300 nM, and 3000 nM. Unknown samples were diluted such that the unknown analyte concentration was in the linear range of the calibration curve.
Samples for all proteins were prepared and analyzed from the following:
Samples were further analyzed with AB Sciex Triple Quad 5500 system coupled with Shimadzu Prominence HPLC.

[3] = target: T4, EGFR T790M/L858R kinase domain (Homo sapiens, UniProt P00533, L858R/T790M); experiment: EGFR cellular target engagement assay (HEK293 cells stable for EGFR T790M, L858R); type: cell-based; details: 6 hours, read-out: TE50 (the source's name)
T4 construct: EGFR (amino acids 696-1022, T790M, L858R); expressed in transfected cells; host or cells: HEK293, lentiviral transduction, puromycin selection
Procedure: HEK293 cells were cultured in DMEM (Gibco 11995), supplemented with 10% Heat-inactivated FBS (Gibco A38400-01) and 1% Penicillin/Streptomycin (Gibco 15140-122) at 37° C. with 5% CO2 in a humidified tissue culture incubator. Cells were made stable for EGFR (amino acids 696-1022, T790M, L858R) by lentiviral transduction, followed by selection with 1 μg/ml Puromycin Dihydrochloride (Thermo A1113803). Cells were seeded at 30,000 cells/ml in 0.1 ml of complete media in Poly-D-lysine-treated 96-well plates and incubated overnight. Cells were treated with increasing concentrations of compound and let incubate at 37C and 5% CO2 for 6 hours, after which media was aspirated, washed with 1×PBS and cells were lysed in RIPA Lysis and Extraction Buffer (Thermo 89901) supplemented with 5 mM MgCl2, Protease and Phosphatase inhibitor cocktail (Thermo 1861281), and Universal Nuclease (Thermo 88700). Plates with RIPA were shaken at 4° C. at 600 rpm for 15 min. After shaking samples, they were collected and spun down at 21,000 g for 15 min at 4° C. Following centrifugation, […] of lysate was added to Laemmli Sample Buffer (Bio-Rad 1610747) plus 10% beta-mercaptoethanol, boiled for 15 minutes at 65° C. and loaded onto 4-20% Mini-PROTEAN TGX™ Precast Protein Gels (Bio-Rad). Protein was transferred to a nitrocellulose membrane (Thermo LC2000) using the iBlot 2 Dry Blotting System (Thermo). After transfer, membranes were washed in 1× TBST (Bioland Scientific LLC TBST0103) 3× for 5 min. Following the wash, blocking buffer (Rockland MB-070) was added for 1 hour at room temperature. Primary antibodies against EGFR (Cell Signaling Technology 3197) and actin (Cell Signaling Technology 3700S) were added overnight at 4° C. Membranes were then washed again 3× for 5 min in 1× TBST. Secondary antibodies (LI-COR 926-68072 and 926-68073) were added and shaken for 1 hr at room temperature. Membranes were then washed 3× for 5 min in 1×TBST and developed. Membranes were placed on an Odyssey imager (LI-COR).

[4] = target: T5, EGFR T790M, L858R (amino acids 669-1011) (Homo sapiens, UniProt P00533, L858R/T790M); experiment: KdELECT binding assay, EGFR T790M, L858R
T5 construct: purchased Eurofins Discovery (KdELECT); host or cells: mammalian cells (HEK-293)
Procedure: (§2) Exemplary compounds were tested for ability to bind to EGFR WT (amino acids 669-1011, Accession Number NP_005219.2) or EGFR T790M, L858R (amino acids 669-1011 Accession Number NP_005219.2) expressed from bacteria or mammalian cells, respectively. Compounds were tested using the KdELECT assay at Eurofins Discovery.
as §1, with “in 1x” for “in 1×”

CCNK = target: T6, CCNK (Homo sapiens, UniProt O75909+Q16531+Q9NYV4); experiment: CCNK HiBiT degradation assay; type: cell-based; details: HEK293 LgBiT/CCNK HiBiT cells, 6 hours
T6 construct: expressed in transfected cells; host or cells: HEK293 LgBiT cells (Promega), lentiviral transduction, puromycin selection
Procedure: HEK293 LgBiT cells (Promega) were cultured in DMEM (Gibco 11995), supplemented with 10% Heat-inactivated FBS (Gibco A38400-01) and 1% Penicillin/Streptomycin (Gibco 15140-122) and 200 μg/ml Hygromycin B (Gibco 10-687-010) at 37° C. with 5% CO2 in a humidified tissue culture incubator. Cells were made stable for CCNK fused to a C-terminal HiBiT peptide by lentiviral transduction, followed by selection with 1 μg/ml Puromycin Dihydrochloride (Thermo A1113803). HEK293 LgBiT/CCNK HiBiT cells were seeded at 3000 cells/well in 384-well, tissue culture-treated white plates (Perkin Elmer 6007680) in 25 μL media lacking selection for 18-24 hours. Plates were spun at 300 g for 30 seconds and stored in the incubator overnight. After 24 hours, compounds were titrated in DMSO and added to media supplemented with Endurazine Substrate (Promega N2570). A 25 ul aliquot of 2× compound/endurazine in media were then added to the 384-well microplate with seeded cells. (Endurazine was used at a final concentration of 0.5×). The plate was spun at 300 g for 30 seconds and stored in the incubator. After 6 hours the plate was read on Envision MultiMode Plate Reader 2105 (Perkin Elmer) to measure luminescence signal. Data were plotted in Prism (Graphpad) and the concentration of compound at which 50% CCNK degradation occurs (DC50) was calculated.

[5] = target: T7, EGFR WT (amino acids 669-1011) (Homo sapiens, UniProt P00533); experiment: KdELECT binding assay, EGFR WT
T7 construct: purchased Eurofins Discovery (KdELECT); host or cells: bacteria (E. coli BL21-derived, T7 phage)
Procedure: as §2
as §1, with “in 1x” for “in 1×”

T2 sequence (Q06187 whole entry, the tested form may be a part): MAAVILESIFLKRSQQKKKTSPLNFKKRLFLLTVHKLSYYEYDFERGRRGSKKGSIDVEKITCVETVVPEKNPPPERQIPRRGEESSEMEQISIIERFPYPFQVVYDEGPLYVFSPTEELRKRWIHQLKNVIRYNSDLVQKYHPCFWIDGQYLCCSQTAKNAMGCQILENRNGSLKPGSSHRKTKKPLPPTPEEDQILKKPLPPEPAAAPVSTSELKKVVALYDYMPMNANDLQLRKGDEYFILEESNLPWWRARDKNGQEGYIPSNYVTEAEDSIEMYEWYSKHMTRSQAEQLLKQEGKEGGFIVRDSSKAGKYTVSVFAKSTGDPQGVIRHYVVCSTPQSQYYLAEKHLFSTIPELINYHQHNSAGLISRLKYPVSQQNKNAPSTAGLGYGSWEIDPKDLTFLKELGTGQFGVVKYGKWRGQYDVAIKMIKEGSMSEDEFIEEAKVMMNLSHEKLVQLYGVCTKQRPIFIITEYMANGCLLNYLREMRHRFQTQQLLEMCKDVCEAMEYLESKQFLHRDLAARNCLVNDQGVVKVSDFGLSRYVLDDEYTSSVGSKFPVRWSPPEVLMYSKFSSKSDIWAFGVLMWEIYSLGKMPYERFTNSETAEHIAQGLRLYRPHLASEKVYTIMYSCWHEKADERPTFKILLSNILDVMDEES
T1 sequence (P15170 whole entry): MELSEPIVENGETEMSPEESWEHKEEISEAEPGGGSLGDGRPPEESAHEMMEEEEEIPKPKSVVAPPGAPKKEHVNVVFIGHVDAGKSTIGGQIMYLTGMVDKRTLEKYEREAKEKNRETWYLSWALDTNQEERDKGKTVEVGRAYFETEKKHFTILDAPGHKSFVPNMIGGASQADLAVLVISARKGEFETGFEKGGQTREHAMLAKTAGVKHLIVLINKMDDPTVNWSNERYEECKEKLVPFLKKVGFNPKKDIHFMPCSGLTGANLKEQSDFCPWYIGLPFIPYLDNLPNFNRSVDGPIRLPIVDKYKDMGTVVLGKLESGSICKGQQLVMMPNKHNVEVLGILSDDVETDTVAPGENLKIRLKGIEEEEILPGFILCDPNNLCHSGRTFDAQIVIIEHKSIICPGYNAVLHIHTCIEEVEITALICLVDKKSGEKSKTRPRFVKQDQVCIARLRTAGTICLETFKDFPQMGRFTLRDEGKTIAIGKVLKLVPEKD
T1 sequence (Q96SW2 whole entry): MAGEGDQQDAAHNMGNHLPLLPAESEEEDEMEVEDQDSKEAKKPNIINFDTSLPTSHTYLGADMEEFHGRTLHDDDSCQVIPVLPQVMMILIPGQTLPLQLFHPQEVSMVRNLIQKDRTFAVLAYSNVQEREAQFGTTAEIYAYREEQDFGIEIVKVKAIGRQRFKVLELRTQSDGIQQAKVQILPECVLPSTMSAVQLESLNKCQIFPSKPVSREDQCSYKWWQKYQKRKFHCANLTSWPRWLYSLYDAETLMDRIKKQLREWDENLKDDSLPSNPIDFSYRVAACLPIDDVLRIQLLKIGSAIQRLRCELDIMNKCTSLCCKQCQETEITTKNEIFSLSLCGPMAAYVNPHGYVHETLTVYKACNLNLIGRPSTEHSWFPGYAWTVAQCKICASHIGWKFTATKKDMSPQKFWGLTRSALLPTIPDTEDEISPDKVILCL
T1 sequence (Q16531 whole entry partner): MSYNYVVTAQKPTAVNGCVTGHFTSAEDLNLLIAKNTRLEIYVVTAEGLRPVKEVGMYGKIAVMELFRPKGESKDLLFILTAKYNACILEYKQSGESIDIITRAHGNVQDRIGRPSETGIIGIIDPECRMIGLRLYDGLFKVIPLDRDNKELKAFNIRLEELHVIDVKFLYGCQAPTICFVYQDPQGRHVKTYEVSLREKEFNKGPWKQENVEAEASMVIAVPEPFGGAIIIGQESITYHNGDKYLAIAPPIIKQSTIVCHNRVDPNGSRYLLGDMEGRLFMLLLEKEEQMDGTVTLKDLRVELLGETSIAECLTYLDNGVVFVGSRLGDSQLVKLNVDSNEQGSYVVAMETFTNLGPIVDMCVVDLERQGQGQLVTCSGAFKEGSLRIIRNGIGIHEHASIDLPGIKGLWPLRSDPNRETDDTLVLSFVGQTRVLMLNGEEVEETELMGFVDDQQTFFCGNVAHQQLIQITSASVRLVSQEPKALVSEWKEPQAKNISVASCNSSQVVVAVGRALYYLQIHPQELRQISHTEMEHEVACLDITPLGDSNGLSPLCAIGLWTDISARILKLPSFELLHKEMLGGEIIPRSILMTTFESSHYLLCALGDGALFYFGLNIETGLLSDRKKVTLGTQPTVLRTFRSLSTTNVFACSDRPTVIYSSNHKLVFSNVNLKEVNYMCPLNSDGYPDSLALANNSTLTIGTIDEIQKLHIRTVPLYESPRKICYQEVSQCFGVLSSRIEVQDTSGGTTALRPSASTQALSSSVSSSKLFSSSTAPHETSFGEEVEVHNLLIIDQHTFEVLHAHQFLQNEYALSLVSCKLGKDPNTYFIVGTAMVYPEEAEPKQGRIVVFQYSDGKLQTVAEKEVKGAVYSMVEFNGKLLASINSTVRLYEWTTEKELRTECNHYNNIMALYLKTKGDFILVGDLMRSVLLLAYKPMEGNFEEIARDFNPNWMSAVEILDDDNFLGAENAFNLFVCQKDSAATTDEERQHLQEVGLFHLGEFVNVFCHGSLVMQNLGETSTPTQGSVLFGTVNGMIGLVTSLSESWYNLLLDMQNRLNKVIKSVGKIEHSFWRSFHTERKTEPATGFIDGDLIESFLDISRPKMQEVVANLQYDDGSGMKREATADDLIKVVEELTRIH
T6 sequence (O75909 whole entry, species assumed): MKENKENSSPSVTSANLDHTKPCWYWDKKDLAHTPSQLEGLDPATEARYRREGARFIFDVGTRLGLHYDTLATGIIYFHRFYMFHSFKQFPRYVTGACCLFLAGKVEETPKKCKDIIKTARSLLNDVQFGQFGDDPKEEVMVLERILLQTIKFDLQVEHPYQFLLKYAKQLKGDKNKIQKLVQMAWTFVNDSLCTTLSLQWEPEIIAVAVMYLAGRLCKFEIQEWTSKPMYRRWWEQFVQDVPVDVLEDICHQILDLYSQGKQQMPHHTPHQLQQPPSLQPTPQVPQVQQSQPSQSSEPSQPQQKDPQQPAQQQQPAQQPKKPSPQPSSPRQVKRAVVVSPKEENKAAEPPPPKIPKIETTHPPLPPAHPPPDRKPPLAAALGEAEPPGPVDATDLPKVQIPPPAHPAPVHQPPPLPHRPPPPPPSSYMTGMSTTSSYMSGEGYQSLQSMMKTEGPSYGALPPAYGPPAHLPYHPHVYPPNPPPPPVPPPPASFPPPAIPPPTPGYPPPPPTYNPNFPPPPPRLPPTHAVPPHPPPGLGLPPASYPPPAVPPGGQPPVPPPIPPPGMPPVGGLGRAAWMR
T6 sequence (Q9NYV4 whole entry, species assumed): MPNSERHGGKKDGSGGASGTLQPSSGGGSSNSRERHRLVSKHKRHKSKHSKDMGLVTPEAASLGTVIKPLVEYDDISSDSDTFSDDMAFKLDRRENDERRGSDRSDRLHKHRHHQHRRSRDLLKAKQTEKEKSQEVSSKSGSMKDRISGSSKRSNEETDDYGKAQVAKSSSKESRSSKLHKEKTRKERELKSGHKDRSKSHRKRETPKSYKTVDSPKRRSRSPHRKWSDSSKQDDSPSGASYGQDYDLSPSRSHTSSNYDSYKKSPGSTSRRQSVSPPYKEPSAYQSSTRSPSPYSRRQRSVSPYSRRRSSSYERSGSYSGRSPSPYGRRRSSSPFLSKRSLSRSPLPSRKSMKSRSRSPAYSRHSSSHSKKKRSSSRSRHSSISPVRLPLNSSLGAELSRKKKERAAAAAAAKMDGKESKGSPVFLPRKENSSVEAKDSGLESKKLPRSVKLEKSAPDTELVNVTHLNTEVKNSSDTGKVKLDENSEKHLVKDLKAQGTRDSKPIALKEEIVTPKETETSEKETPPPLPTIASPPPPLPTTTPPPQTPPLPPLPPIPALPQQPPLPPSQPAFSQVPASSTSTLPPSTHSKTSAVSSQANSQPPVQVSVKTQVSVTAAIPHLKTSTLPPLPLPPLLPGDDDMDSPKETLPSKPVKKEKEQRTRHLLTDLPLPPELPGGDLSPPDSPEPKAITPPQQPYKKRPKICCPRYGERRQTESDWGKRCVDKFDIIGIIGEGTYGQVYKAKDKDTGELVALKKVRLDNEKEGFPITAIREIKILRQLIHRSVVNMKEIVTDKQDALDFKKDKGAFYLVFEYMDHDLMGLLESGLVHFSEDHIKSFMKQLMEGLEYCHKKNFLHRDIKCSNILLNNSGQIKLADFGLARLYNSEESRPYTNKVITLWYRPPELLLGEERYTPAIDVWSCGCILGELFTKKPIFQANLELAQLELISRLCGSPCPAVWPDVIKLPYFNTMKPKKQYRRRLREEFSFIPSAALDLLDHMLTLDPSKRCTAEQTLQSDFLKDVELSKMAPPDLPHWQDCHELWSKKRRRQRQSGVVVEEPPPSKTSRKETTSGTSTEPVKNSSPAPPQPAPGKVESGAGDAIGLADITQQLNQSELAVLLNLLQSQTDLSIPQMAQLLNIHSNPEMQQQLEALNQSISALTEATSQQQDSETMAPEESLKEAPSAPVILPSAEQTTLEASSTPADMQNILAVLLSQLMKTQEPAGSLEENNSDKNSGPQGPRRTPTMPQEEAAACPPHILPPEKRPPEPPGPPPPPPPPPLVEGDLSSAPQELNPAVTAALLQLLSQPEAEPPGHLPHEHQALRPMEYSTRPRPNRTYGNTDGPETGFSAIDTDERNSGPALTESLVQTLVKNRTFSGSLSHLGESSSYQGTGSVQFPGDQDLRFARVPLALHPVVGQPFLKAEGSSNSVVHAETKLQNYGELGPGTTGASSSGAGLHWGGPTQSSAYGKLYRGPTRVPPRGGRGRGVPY
T6 sequence (Q16531 whole entry, species assumed): as the sequence (Q16531 whole entry partner) above

GI50 (HeLa cells (ATCC CCL-2)) [µM]	DC50 (GSPT1) [µM]	Kd [2] [µM]	Structure (SMILES)	GI50 [1] [µM]	further results
> 10	> 2.5	0.5 to 2.5	C=C(CN(C(=O)NCc1ccc2c(c1)CN(C1CCC(=O)NC1=O)C2=O)c1ccc(C(F)(F)F)c(Cl)c1)C(=O)N1CCC[C@@H](n2nc(-c3ccc(Oc4ccccc4)cc3)c3c(N)ncnc32)C1 (stereo partly drawn) [Compound I-38]	> 10	–
–	> 2.5	0.5 to 2.5	C=C(CN1C(=O)CCC(N2Cc3cc(CNC(=O)Nc4ccc(C)c(Cl)c4)ccc3C2=O)C1=O)C(=O)N1CCC[C@@H](n2nc(-c3ccc(Oc4ccccc4)cc3)c3c(N)ncnc32)C1 (stereo partly drawn) [Compound I-3, 1-[[2-[1-[2-[(3R)-3-[4-amino-3-(4-phenoxyphenyl)pyrazolo[3,4-d]pyrimidin-1-yl]piperidine-1-carbonyl]allyl]-2,6-dioxo-3-piperidyl]-1-oxo-isoindolin-5-yl]methyl]-3-(3-chloro-4-methyl-phenyl)urea]	–	–
–	–	–	C=C(Cn1cc(CNc2cc(N3CCCC[C@H]3CCO)nc3c(CC)cnn23)ccc1=O)C(=O)N[C@@H]1CN(c2nc(Nc3cn(C)nc3OC)c3ncn(C)c3n2)C[C@H]1F [Compound A1-8]	–	Concentration of Effector Protein Ligand (EGFR T790M L858R; Buffer + Protein (EGFR T790M L858R), Time 0 h): 0.889 µM; Concentration of Effector Protein Ligand (EGFR T790M L858R; Buffer + Protein (EGFR T790M L858R), Time 2 h): 5.18 µM; Concentration of Effector Protein Ligand (EGFR T790M L858R; Buffer + Protein (EGFR T790M L858R), Time 8 h): 6.91 µM; Concentration of Effector Protein Ligand (EGFR T790M L858R; Buffer + Protein (EGFR T790M L858R), Time 24 h): 9.11 µM; Concentration of Effector Protein Ligand (EGFR T790M L858R; Buffer, Time 0 h): 0.894 µM; Concentration of Effector Protein Ligand (EGFR T790M L858R; Buffer, Time 2 h): 4.06 µM; Concentration of Effector Protein Ligand (EGFR T790M L858R; Buffer, Time 8 h): 7.24 µM; Concentration of Effector Protein Ligand (EGFR T790M L858R; Buffer, Time 24 h): 8.26 µM
0.5 to 1.5	–	0.05 to 0.5	C=C(COc1ccc(Cl)cc1NC(=O)NCc1ccc2c(c1)CN(C1CCC(=O)NC1=O)C2=O)C(=O)N1CCC[C@@H](n2nc(-c3ccc(Oc4ccccc4)cc3)c3c(N)ncnc32)C1 (stereo partly drawn) [I-32]	0.5 to 1.5	–
1.5 to 10	0.5 to 2.5	< 0.05	C=C(COc1cc(Cl)cc(NC(=O)NCc2ccc3c(c2)CN(C2CCC(=O)NC2=O)C3=O)c1)C(=O)N1CCC[C@@H](n2nc(-c3ccc(Oc4ccccc4)cc3)c3c(N)ncnc32)C1 (stereo partly drawn) [Compound I-114]	0.5 to 1.5	–
< 0.5	–	–	C=C(COC(=O)N1CCN(c2nc(NCc3nc4cc(C)ccc4[nH]3)n3ncc(Br)c3n2)CC1)C(=O)N[C@@H]1CN(c2nc(Nc3cn(C)nc3OC)c3ncn(C)c3n2)C[C@H]1F [II-184]	< 0.5	EC50 [3]: 0.25 to 5 µM; Kd [4]: 0.05 to 0.5 µM; DC50 (CCNK): < 0.25 µM; Kd [5]: 0.05 to 0.5 µM
